Data on seven compounds can be found in US20240400591A1 (Jacobio Pharmaceuticals Co., Ltd., priority 2021, published 2024).

Experiment [1] addresses T1, His-p53 Y220C (94-294) protein (Homo sapiens, UniProt P04637, Y220C).
T1 construct: His-p53 Y220C (94-294) protein
As to the kind of experiment: In vitro DNA binding assay (HTRF). Format: biochemical. As to conditions: % activation normalized to 2 μM Ref-1a high control.

Another experiment has as its system NUGC3 (P53 Y220C). The experiment in a line: Cell viability assay (CellTiter-Glo, 6 days), NUGC3. Type of experiment: cell-based. The method in brief: (§1)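 Cells seeded overnight at 37 °C, then exposed to compounds in medium for 6 days. Viability read by CellTiter-Glo luminescence, normalized to DMSO cell wells (high) and medium-only wells (low); IC50 taken as concentration giving 50% viability from 4-parameter logistic fit.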

The test system of a further experiment is NUGC4 (P53 WT). The experiment in a line: Cell viability assay (CellTiter-Glo, 6 days), NUGC4. Format: cell-based. The method, boiled down: as §1
Background: In ATP-based viability assays light output follows the ATP content of the culture.

Experiment [2] has as its system NUGC-3_P53_Luc single clonal cell line (p53 Y220C). The experiment in a line: Reporter gene assay (p53 RE luciferase). Type of experiment: cell-based. The method, boiled down: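 NUGC-3 cells stably carrying a p53 RE-driven luc2P reporter, washed free of phenol red, exposed to compound for 6 h at 37 °C; luminescence read. Activity normalised between DMSO (low) and Ref-1a 10 μM (high) controls; EC50 from 4-parameter logistic fit or Excel as concentration giving 50% activity.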
For orientation: Reporter assays use an easily measured gene product as a stand-in for the process of interest.

Setting [3] is: Homo sapiens, NUGC-3, 144 h, cell viability, 6 days, CellTiter-Glo, read-out: NUGC3 (P53 Y220C) IC50.
[4] abbreviates: Homo sapiens, NUGC-4, 144 h, cell viability, 6 days, CellTiter-Glo, read-out: NUGC4 (P53 WT) IC50.
[5] abbreviates: Homo sapiens, NUGC-3, luciferase reporter, 6 hours, normalized to Ref-1a (10 μM) high control, read-out: p53(Y220C)_NUGC-3 EC50.

Molecules are shown by their SMILES. Where two headings read alike, the source gives them in different places.

Turning to `COCCNC(=O)c1ccc(NCC#Cc2sc3c(N[C@@H]4CCN(C)C[C@@H]4F)cccc3c2CC(F)(F)F)c(OC)c1` (relative stereo) [Example 85, 4-((3-(7-(((Z)-3-fluoro-1-methylpiperidin-4-yl)amino)-3-(2,2,2-trifluoroethyl)benzo[b]thiophen-2-yl)prop-2-yn-1-yl)amino)-3-methoxy-N-(2-methoxyethyl)benzamide], the half-maximal effective concentration (EC50) in experiment [1] worked out at 0.075 µM; in experiment [2] (setting [5]) it was 0.22 µM. Further, the figures for the IC50 in the experiment with NUGC3 (P53 Y220C) (setting [3]) and in the experiment on NUGC4 (P53 WT) (setting [4]) were 1.54 µM and 8.24 µM, respectively.

As for `CNC(=O)c1ccc(NCC#Cc2cc3c(N[C@@H]4CCN(C)C[C@@H]4F)cccc3n2CC(F)(F)F)c(OC)c1` [Example 57, 4-((3-(4-(((Z)-3-fluoro-1-methylpiperidin-4-yl)amino)-1-(2,2,2-trifluoroethyl)-1H-indol-2-yl)prop-2-yn-1-yl)amino)-3-methoxy-N-methylbenzamide], the concentration for a half-maximal effect (EC50) in experiment [1] worked out at 0.029 µM; in experiment [2] (setting [5]) it was 0.08 µM. Besides, the values for the IC50 in the experiment with NUGC3 (P53 Y220C) (setting [3]) and with NUGC4 (P53 WT) (setting [4]) were 1.11 µM and 12 µM, respectively.

As for `CNC(=O)c1cc(NCC#Cc2sc3c(NC4CCN(C)CC4F)cccc3c2CC(F)(F)F)c(OC)cc1P(C)(C)=O` (racemic) [Example 109, 2-dimethylphosphoryl-5-[3-[7-[((Z)-3-fluoro-1-methyl-4-piperidyl)amino]-3-(2,2,2-trifluoroethyl)benzothiophen-2-yl]prop-2-ynylamino]-4-methoxy-N-methyl-benzamide], the EC50 in experiment [1] was 0.033 µM; in experiment [2] (setting [5]) it was 0.12 µM. Further, the figures for the IC50 with NUGC3 (P53 Y220C) (setting [3]) and in the experiment with NUGC4 (P53 WT) (setting [4]) were 1.19 µM and 47.7 µM, respectively.

As to `COc1cc(C(N)=O)ncc1NCC#Cc1sc2c(NC3CCN(C)CC3F)cccc2c1CC(F)(F)F` (stereo not shown) [Example 61, 5-((3-(3-(2,2,2-trifluoroethyl)-7-(((Z)-3-fluoro-1-methylpiperidin-4-yl)amino)benzo[b]thiophen-2-yl)prop-2-yn-1-yl)amino)-4-methoxypicolinamide], the EC50 in experiment [1] is 0.102 µM; in experiment [2] (luciferase reporter, 6 hours, normalized to Ref-1a (10 μM) high control, read-out: p53(Y220C)_NUGC-3 EC50), 0.53 µM. For the same compound, the concentration for half-maximal inhibition (IC50) with NUGC3 (P53 Y220C) (cell viability, 6 days, CellTiter-Glo, read-out: NUGC3 (P53 Y220C) IC50) is 4.53 µM; in the experiment with NUGC4 (P53 WT) (cell viability, 6 days, CellTiter-Glo, read-out: NUGC4 (P53 WT) IC50) it was 13 µM.

For the compound `COc1cc(P2(=O)CCCC2)ccc1NCC#Cc1sc2c(N[C@@H]3CCN(C)C[C@@H]3F)cccc2c1CC(F)(F)F` [Example 117, 1-(4-((3-(7-(((3S,4R)-3-fluoro-1-methylpiperidin-4-yl)amino)-3-(2,2,2-trifluoroethyl)benzo[b]thiophen-2-yl)prop-2-yn-1-yl)amino)-3-methoxyphenyl)phospholane 1-oxide], the half-maximal effective concentration (EC50) in experiment [1] worked out at 0.034 µM; in experiment [2] (Homo sapiens, NUGC-3, 6 h, read-out: p53(Y220C)_NUGC-3 EC50 (μM)) it was 0.17 µM. The half-maximal inhibitory concentration (IC50) came out at 0.93 µM with NUGC3 (P53 Y220C) (Homo sapiens, NUGC-3, 144 h, read-out: NUGC3 (P53 Y220C) IC50 (μM)) and 8.54 µM in the experiment on NUGC4 (P53 WT) (Homo sapiens, NUGC-4, 144 h, read-out: NUGC4 (P53 WT) IC50 (μM)).

For the compound `CN1CC[C@@H](Nc2cccc3c(CC(F)(F)F)c(C#CCNc4ccc(P(C)(C)=O)c5c4OCCO5)sc23)[C@@H](F)C1` [Example 193, (8-((3-(7-(((3S,4R)-3-fluoro-1-methylpiperidin-4-yl)amino)-3-(2,2,2-trifluoroethyl)benzo[b]thiophen-2-yl)prop-2-yn-1-yl)amino)-2,3-dihydrobenzo[b][1,4]dioxin-5-yl)dimethylphosphine oxide], the EC50 stood at 0.113 µM in experiment [1] and 0.13 µM in experiment [2] (setting [5]). Further, the values for the half-maximal inhibitory concentration (IC50) in the experiment with NUGC3 (P53 Y220C) (setting [3]) and in the experiment on NUGC4 (P53 WT) (setting [4]) were 1.22 µM and 18.6 µM, respectively.

`COc1cc(P(C)(C)=O)ccc1NCC#Cc1sc2c(N[C@@H]3CCN(C4CCC4)C[C@@H]3F)cccc2c1CC(F)(F)F` (racemic) [Example 103, (4-((3-(7-(((Z)-1-cyclobutyl-3-fluoropiperidin-4-yl)amino)-3-(2,2,2-trifluoroethyl)benzo[b]thiophen-2-yl)prop-2-yn-1-yl)amino)-3-methoxyphenyl)dimethylphosphine oxide]: the half-maximal effective concentration (EC50) was determined as 0.091 µM in experiment [1] and 0.21 µM in experiment [2] (setting [5]). Further, the IC50 is 1.28 µM with NUGC3 (P53 Y220C) (setting [3]) and 2.65 µM in the experiment with NUGC4 (P53 WT) (setting [4]).

As a reminder, the EC50 is the concentration that produces a half-maximal response. By IC50 is commonly meant the concentration that gives 50% inhibition.
